Source: PMC5354587, “Ergosterone-coupled Triazol molecules trigger mitochondrial dysfunction, oxidative stress, and acidocalcisomal Ca^2+ release in Leishmania mexicana promastigotes” (Microbial Cell, 2015)

Tests used:
Type in all cases: cell-based
[1] = test system: Leishmania mexicana promastigotes; assay: Transmission electron microscopy of treated parasites; conditions: 48 hours, TEM
Method: To analyze if changes observed after parasite treatment with Erg-GTr or Erg-GTr2 can be associated with morphological alterations, cells were prepared for transmission electron microscopy as described in materials and methods section.
Figure 5 FIGURE 5: Transmission electron microscopy (TEM) of Epon-embedded cells. Parasites were treated with 1.4 μM Erg-GTr, 2.3 μM Erg-GTr2 or DMSO (control cells), harvested after 48 hours and prepared for TEM. (A) The most obvious alterations in Erg-GTr-treated cells are as follows: increase of vacuolar structures containing cytoplasmic material (c, d, f, h), myelin-like structures (d, h), increase of lysosomes (d, e, g), and flagellar pocket containing some material (g). Note the usual appearance of mitochondria, nucleus and cytoplasmic content in control cells (a, b). Abbreviations used: lysosome (L); nucleus (N); flagellar pocket (FP); mitochondrion (M). Arrows and asterisk indicate autophagosomes and myelin-like structures, respectively. (B) Mitochondrion zoom in to show cristae. […] Bars represent 0.5 μ each.
For TEM, 10^8 parasites were fixed in 2% (vol/vol) glutaraldehyde in 0.2 M sodium cacodylate buffer containing 0.12 M sucrose for 1 h at 4°C. Thereafter samples were washed four times (10 min each) and stored overnight in sodium cacodylate buffer. Before dehydration in ethanol, cells were postfixed in osmium tetroxide (1.5%, wt/vol) and stained in 0.5% uranyl acetate. Samples were cleared in propylene oxide and embedded in Agar 100 as described by. Sections were stained in 5% (wt/vol) uranyl acetate and 0.4% (wt/vol) lead citrate.

[2] = test system: Leishmania mexicana promastigotes; assay: Mitochondrial membrane potential immediately after addition, rhodamine 123; conditions: Erg-GTr 1.4 μM or Erg-GTr2 2.3 μM
Method: As the Leishmania mitochondrion seems to be involved in [Ca^2+]cyt regulation and can also accumulate Ca^2+ [9], the effect of Erg-GTr and Erg-GTr2 was analyzed immediately after its addition to parasites preloaded with rhodamine 123.
Mitotracker CMX Red(Invitrogen) was used to determine the mitochondrial membrane potential (Ψmit) of treated parasites. After 6, 16, 24, and 48 hours treatment, cells were incubated in culture medium with 50 nM Mitotracker CMX Red for 30 minutes at 26°C in the dark. Thereafter, parasites were washed twice with PBS, resuspended in 1 mL buffer, and analyzed using a cytometer (Beckman Coulter). Parasites incubated with valinomycin (500 nM for 30 minutes) were used as positive control. To evaluate the effect of ergosterone coupled molecules on the mitochondrial membrane potential immediately after molecule addition we used the fluorophore rhodamine-123, a mitochondrion-specific cationic dye, which distributes across the inner mitochondrial membranes strictly according to their membrane potential, as described before. Briefly, 1 x 10^7 parasites were washed twice with rhodamine 123 loading buffer (20 mM Tris-HCl, 130 mM KCl, 1 mM MgCl2, and 2 mM KH2PO4) and incubated with 20 μM rhodamine 123 for 45 minutes at 29°C under agitation. […] Fluorescence (ex 488 nm and em 530 nm) was registered in a Hitachi F-7000 Spectrofluorimeter. […]

[3] = test system: Leishmania mexicana promastigotes; assay: Cytoplasmic Ca2+ level measurement with Fura 2-AM; conditions: Erg-GTr 1.4 μM or Erg-GTr2 2.3 μM; same result with extracellular Ca2+ sequestered by EGTA
Text: In order to evaluate the possible effect of Erg-GTr and Erg-GTr2 on the cytoplasmic Ca^2+ concentration ([Ca^2+]cyt) in L. mexicana promastigotes, parasites were loaded with fura 2-AM, a fluorimetric Ca^2+ indicator which allows the measurement of intracellular changes in its concentration. Figure 7A represents the relative [Ca^2+]cyt, indicated as normalized OD340/380 ratio.
The fluorescent ratiometric Ca^2+ indicator Fura 2-AM was used to analyze intracellular Ca^2+ concentration. Promastigotes from stationary phase cultures were washed twice with PBS containing 1% glucose and incubated for 3 hours at 29°C with 4 μM Fura 2-AM, […], and 0.05% pluronic acid. Thereafter, parasites were washed twice, resuspended, and placed in a stirred quartz cuvette at 29°C. Fluorescence (ex 340 nm/380 nm and em 510 nm) was registered in a Hitachi F-7000 Spectrofluorimeter. Digitonin and EGTA were used to obtain the maximum and minimum [Ca^2+] in the sample, respectively.

[4] = test system: Leishmania mexicana promastigotes; assay: Alkalinization of acidocalcisomes, acridine orange; conditions: Erg-GTr 1.4 μM or Erg-GTr2 2.4 μM; nigericin 2 μM as control
Text: Leishmania can store Ca^2+ in different compartments like the endoplasmic reticulum, the mitochondrion, and the acidocalcisomes. The major Ca^2+ reservoir is represented by this last organelle. In order to analyze if the [Ca^2+]cyt increase is due to its release from acidocalcisomes, parasites were charged with acridine orange and assayed fluorimetrically. Since acridine orange accumulates in acidic compartments, it allows detection of alkalinization.
To evaluate the effect of ergosterone coupled molecules on the Ca^2+ reservoir organelle acidocalcisome, parasites were stained with acridine orange as described previously. Briefly, 1 x 10^7 parasites were washed twice with loading buffer (20 mM Tris-HCl, 130 mM KCl, 1 mM MgCl2, and 2 mM KH2PO4) and incubated for 5 minutes with acridine orange (5 μM). Samples were washed twice, resuspended in 500 μL of the same buffer, and transferred to a stirred quartz cuvette at 29°C. Fluorescence (ex 488 nm and em 530 nm) was registered in a Hitachi F-7000 Spectrofluorimeter. Nigericin was used as control for acidocalcisome alkalinization.

## CC(C)C(C)C=CC(C)C1CCC2C3=CC(=NNC(=O)n4cnnc4)C4(O)CC(=O)CCC4(C)C3CCC21C (stereo not drawn) [Erg-GTr, [1,2,4]triazole-4-carboxylic acid [5-hydroxy-10,13-dimethyl-3-oxo-17-(1,4,5-trimethyl-hex-2-enyl)-1,2,3,4,5,9,10,11,12,13,14,15,16,17-tetradecahydro-cyclopenta[a]phenanthren-6-ylidene]-hydrazide]
[1]
  autophagy (ultrastructural changes): Induction of autophagy
  treated parasites showing increase in cristae number and size: More than 50%
[1]; compared with control
  number and size of mitochondrion cristae: higher
[2]
  rhodamine 123 fluorescence (depolarization of mitochondrial membrane potential): slow fluorescence increase
[3]
  effect on cytoplasmic Ca2+ concentration ([Ca2+]cyt): rapid increase
[4]
  acridine orange fluorescence (acidocalcisome alkalinization): rapid fluorescence increase
